# Data reported in publication PMC12396409, “Screening and hit evaluation of a microbial metabolite library against the pathogenic Plasmodium falciparum and Toxoplasma gondii parasites” (International Journal for Parasitology: Drugs and Drug …, 2025).
# Counter-ions that a name gives are not always drawn. Like-named read-outs stand apart in the source and are kept apart here.
# Tests used:
# [1] = system: P. falciparum 3D7 parasites; test: P. falciparum growth inhibition assay, 1-cycle (72 h treatment), SYBR DNA staining (library screen at 2 μg/mL and dose-response); format: cell-based, Plasmodium falciparum; details: for activity at 2 µg/mL: Plasmodium falciparum, 3D7; P. falciparum, 2 μg/mL, 72 h; read-out: 1) Growth (%) at 72 h
# [2] = system: P. falciparum 3D7 parasites; test: P. falciparum growth inhibition assay, 2-cycle (120 h treatment), delayed-death screen and dose-response; format: cell-based, Plasmodium falciparum; details: for 3) Fold change (72 h/120 h) / 2) Growth (%) at 120 h: P. falciparum, 2 μg/mL; for 3) Fold change (72 h/120 h): growth at 72 h / growth at 120 h; for activity at 2 µg/mL: Plasmodium falciparum, 3D7; P. falciparum, 2 μg/mL, 120 h; read-out: 2) Growth (%) at 120 h
# [3] = system: T. gondii RH strain (RH-Tub-eYFP) tachyzoites; test: microbe, parasite or virus in culture; format: cell-based, Toxoplasma gondii; details: 72 h; for Mean / Replicate 1 / Replicate 2: T. gondii, 2 μg/mL; for Mean: mean of both replicates, growth (% of control); for Replicate 1 / Replicate 2: values are growth (% of control); for percent parasite growth at 2 µg/mL: Toxoplasma gondii
# [4] = 3D7, 72 h treatment, mean ± S.D., n ≥ 3, read-out: IC50 (μM), P. falciparum
# [5] = Plasmodium falciparum, 3D7, 72 h treatment, mean ± S.D., n ≥ 3, read-out: IC50 (μM), P. falciparum
# [6] = P. falciparum, 72 h, 2 μg/mL, mean of both replicates, growth (% of control)
# [7] = 72 h treatment, read-out: IC50, P. falciparum
compound,measurement,setting,value
"CCC[C@@H]1C[C@@H](C(=O)N[C@@H]([C@H]2O[C@H](SC)[C@H](O)[C@@H](O)[C@H]2O)[C@@H](C)O)N(C)C1 [Lincomycin, reference compound]",activity at 2 µg/mL,[1],54.4%
same,3) Fold change (72 h/120 h),[2],3.8
same,activity at 2 µg/mL,[2],14.1%
CC[C@H]1CCC[C@H](O)[C@@H](C)C(=O)C2=C[C@@H]3[C@@H](C=C(C)[C@@H]4C[C@@H](O[C@@H]5O[C@@H](C)[C@H](OC)[C@@H](OC)[C@H]5OC)C[C@@H]34)[C@@H]2CC(=O)O1 [Spinosyn D pseudoaglycone],IC50,[1]; [4],> 1 µM
CCCC[C@H](C)[C@@H]1CC(=O)N[C@@H](Cc2ccccc2)C(=O)N[C@@H](C)C(=O)N[C@H]([C@@H](C)CC)C(=O)O1 [Beauveriolide III],IC50,[1]; [5],> 1 µM
"CN[C@@H]1C[C@H]2O[C@@](C)([C@@H]1OC)n1c3ccccc3c3c4c(c5c6ccccc6n2c5c31)C(=O)NC4=O [Oxostaurosporine, 7-]",Mean,[3],37.90
same,Replicate 1,[3],57.26
same,Replicate 2,[3],18.54
Milbemycin oxime [reference compound],1) Growth (%) at 72 h,"[1]; P. falciparum, 2 μg/mL, 72 h",23.75%
same,2) Growth (%) at 120 h,[2],3.08%
same,3) Fold change (72 h/120 h),[2],7.7
Ikarugamycin,Mean,[1]; [6],48.31
CC[C@H](C)[C@H]1OC(=O)[C@H](Cc2ccccc2)N(C)C(=O)[C@@H](C(C)C)OC(=O)[C@H](Cc2ccccc2)N(C)C(=O)[C@@H](C(C)C)OC(=O)[C@H](Cc2ccccc2)N(C)C1=O [Beauvericin A],IC50,"[1]; Plasmodium falciparum, 3D7, 72 h treatment, read-out: IC50, P. falciparum",0.33 µM
same,IC50,[1]; [5],0.326 ± 0.095 µM
CCO[C@@H]1[C@@H](OC)[C@H](C)O[C@@H](O[C@H]2C[C@H]3[C@@H]4C=C5C(=O)[C@H](C)[C@@H](O)CCC[C@H](CC)OC(=O)C[C@H]5[C@@H]4C=C(C)[C@@H]3C2)[C@@H]1OC [3-Ethoxyspinosyn L pseudoaglycone],IC50,[1]; [4],> 1 µM
CN=C1NC(=O)[C@H]([C@H](C)c2c[nH]c3ccccc23)O1 [Indolmycin],1) Growth (%) at 72 h,"[1]; P. falciparum, 2 μg/mL, 72 h",44.88%
same,2) Growth (%) at 120 h,[2],17.39%
same,3) Fold change (72 h/120 h),[2],2.6
CCCCCC(=O)O[C@H]1[C@H](C)O[C@@H](O[C@H]2[C@H](N(C)C)[C@@H](O)[C@H](O[C@H]3[C@@H](CC=O)C[C@@H](C)[C@@H](O)/C=C/C=C/C[C@@H](C)OC(=O)C[C@@H](O)[C@@H]3OC)O[C@@H]2C)C[C@@]1(C)O [Leucomycin A13],1) Growth (%) at 72 h,"[1]; P. falciparum, 2 μg/mL, 72 h",33.20%
same,2) Growth (%) at 120 h,[2],9.02%
same,3) Fold change (72 h/120 h),[2],3.7
CC1=C[C@H]2[C@H](O)[C@H](O)CC[C@H]2[C@@](C)(C(O)=C2C(=O)CNC2=O)[C@@H]1CCC(C)C(O)/C(C)=C/CC(O)/C=C/C(C)C(O)/C=C/CC(O)/C(C)=C/CC(O)CC1CCCN1C(=N)N (stereo partly drawn) [Lydicamycin],Mean,[1]; [6],36.70
COC(=O)C1=CO[C@@H](C)[C@@H]2CN3CCc4c([nH]c5cc(OC)c(OC)cc45)[C@@H]3C[C@H]12 [Isoreserpiline],1) Growth (%) at 72 h,"[1]; P. falciparum, 2 μg/mL, 72 h",24.60%
same,2) Growth (%) at 120 h,[2],4.30%
same,3) Fold change (72 h/120 h),[2],5.7
"CCC[C@@H]1C[C@@H](C(=O)N[C@@H]([C@H]2O[C@H](SC)[C@H](O)[C@@H](O)[C@H]2O)[C@H](C)Cl)N(C)C1 [Clindamycin hydrochloride, reference compound]",percent parasite growth at 2 µg/mL,[3]; read-out: Tg_72h_%Growth_Rep1,21.7%
same,percent parasite growth at 2 µg/mL,[3]; read-out: Tg_72h_%Growth_Rep2,28.6%
"CCO[C@@H]1[C@@H](OC)[C@H](C)O[C@@H](O[C@@H]2C[C@H]3CC[C@@H]4[C@@H](C=C5C(=O)[C@H](C)[C@@H](O)CCC[C@H](CC)OC(=O)C[C@H]54)[C@@H]3C2)[C@@H]1OC [3-Ethoxy-5,6-dihydrospinosyn J pseudoaglycone]",IC50,[1]; [4],> 1 µM
same,Screen (P. falciparum),"[1]; library screen at 2 μg/mL, 3D7, 72 h, DD from the 120 h timepoint",I
CC[C@H]1O[C@]2(CC[C@@H]1C)C[C@@H]1C[C@@H](C/C=C(\C)C[C@@H](C)/C=C/C=C3\CO[C@@H]4C(=NO)C(C)=C[C@@H](C(=O)O1)[C@]34O)O2 [Milbemycin A4 oxime],1) Growth (%) at 72 h,"[1]; P. falciparum, 2 μg/mL, 72 h",22.48%
same,Mean,[1]; [6],22.48
same,2) Growth (%) at 120 h,[2],12.31%
same,3) Fold change (72 h/120 h),[2],1.8
COC(=O)c1ccc(CCCCCCCCCCc2ccc(C(=O)OC)nc2)cn1 [Penicolinate A],Mean,[3],44.53
same,Replicate 1,[3],16.04
same,Replicate 2,[3],73.01
CCO[C@@H]1[C@@H](OC)[C@H](C)O[C@@H](O[C@H]2C[C@H]3[C@@H]4C=C5C(=O)[C@H](C)[C@@H](O[C@H]6CC[C@H](N(C)C)[C@@H](C)O6)CCC[C@H](CC)OC(=O)C[C@H]5[C@@H]4C=C(C)[C@@H]3C2)[C@@H]1OC [3-Ethoxyspinosyn L],IC50,[1]; [4],0.57 ± 0.28 µM
Cc1cc(=O)n2c3c(c4c(cc13)c(CO)cc(=O)n4C)OC2 [Nybomycin],1) Growth (%) at 72 h,"[1]; P. falciparum, 2 μg/mL, 72 h",31.94%
same,Mean,[1]; [6],31.94
same,2) Growth (%) at 120 h,[2],16.54%
same,3) Fold change (72 h/120 h),[2],1.9
"CN(C)c1ccc(O)c2c1C[C@H]1C[C@H]3[C@H](N(C)C)C(O)=C(C(N)=O)C(=O)[C@@]3(O)C(O)=C1C2=O [Minocycline HCl, reference compound]",Mean,[3],21.66
same,Replicate 1,[3],5.81
same,Replicate 2,[3],37.51
CC1=C[C@H]2C(=O)O[C@H]3C[C@@H](C/C=C(\C)C[C@@H](C)/C=C/C=C4\CO[C@H]([C@@H]1O)[C@@]42O)O[C@]1(C3)C[C@H](O)[C@H](C)[C@@H](/C(C)=C/C(C)C)O1 [Nemadectin],1) Growth (%) at 72 h,"[1]; P. falciparum, 2 μg/mL, 72 h",21.98%
same,Mean,[1]; [6],21.98
same,2) Growth (%) at 120 h,[2],11.78%
same,3) Fold change (72 h/120 h),[2],1.9
C/C=C(/NC(=O)c1csc(-c2csc(-c3ccc4c(n3)-c3csc(n3)C(C(C)OC)NC(=O)c3csc(n3)C(C(C)(C)O)NC(=O)c3csc(n3)/C(=C\C)NC(=O)C(C(C)O)NC(=O)c3csc-4n3)n2)n1)C(=O)NCC(C)O (stereo not drawn) [Thiocillin II],IC50,[1]; [4],0.161 ± 0.038 µM
same,IC50,[1]; [7],< 0.2 µM
CC(=O)O[C@H]1C[C@@]2(C)[C@@H](CC[C@H]3[C@@]4(C)C=CC(=O)[C@@H](C)[C@@H]4[C@H](OC(C)=O)C(=O)[C@@]32C)/C1=C(\CCC=C(C)C)C(=O)O [Helvolic acid],activity at 2 µg/mL,[1],56.7%
same,3) Fold change (72 h/120 h),[2],7.0
same,activity at 2 µg/mL,[2],8.14%
CO[C@@H]1[C@@H](O[C@@H]2O[C@H](C)[C@@H](O[C@H]3C[C@@](C)(O)[C@@H](OC(=O)CC(C)C)[C@H](C)O3)[C@H](N(C)C)[C@H]2O)[C@@H](CC=O)C[C@@H](C)[C@@H](O)/C=C/C=C/C[C@@H](C)OC(=O)C[C@H]1O [Leucomycin A1],1) Growth (%) at 72 h,"[1]; P. falciparum, 2 μg/mL, 72 h",58.63%
same,2) Growth (%) at 120 h,[2],11.56%
same,3) Fold change (72 h/120 h),[2],5.1
CC[C@H]1/C=C/C=C/C[C@@H](C)[C@H](O)[C@@](C)(O)C(=O)[C@@H](C)[C@H](O)[C@@H](C)C(=O)[C@@H](C)[C@H](O)[C@@H](C)/C=C/C(=O)O[C@H]2C[C@@]3(CC[C@H](C)[C@H](C[C@@H](C)O)O3)O[C@@H](CC1)[C@H]2C [Oligomycin D],1) Growth (%) at 72 h,"[1]; P. falciparum, 2 μg/mL, 72 h",21.67%
same,Mean,[1]; [6],21.67
same,2) Growth (%) at 120 h,[2],14.87%
same,3) Fold change (72 h/120 h),[2],1.5
Bischloroanthra-benzoxocinone,Mean,[1]; [6],31.15
Thiocillin III,IC50,[1]; [4],0.11 ± 0.006 µM
same,IC50,[1]; [7],< 0.2 µM
Methylcanidine,1) Growth (%) at 72 h,"[1]; P. falciparum, 2 μg/mL, 72 h",21.12%
same,Mean,[1]; [6],21.12
same,2) Growth (%) at 120 h,[2],11.61%
same,3) Fold change (72 h/120 h),[2],1.8
Oc1cc(O)cc(O)c1 [Phloroglucinol],activity at 2 µg/mL,[1],51.2%
same,3) Fold change (72 h/120 h),[2],3.9
same,activity at 2 µg/mL,[2],13.2%
CCCC(=O)O[C@H]1[C@H](C)O[C@@H](O[C@H]2[C@H](N(C)C)[C@@H](O)[C@H](O[C@H]3[C@@H](CC=O)C[C@@H](C)[C@@H](O)/C=C/C=C/C[C@@H](C)OC(=O)C[C@@H](O)[C@@H]3OC)O[C@@H]2C)C[C@@]1(C)O [Leucomycin A5],1) Growth (%) at 72 h,"[1]; P. falciparum, 2 μg/mL, 72 h",66.05%
same,2) Growth (%) at 120 h,[2],12.18%
same,3) Fold change (72 h/120 h),[2],5.4
CC[C@H](C)[C@H]1O[C@]2(CC[C@@H]1C)C[C@@H]1C[C@@H](C/C=C(\C)[C@@H](O[C@H]3C[C@H](OC)[C@@H](O)[C@H](C)O3)[C@@H](C)/C=C/C=C3\CO[C@@H]4[C@H](O)C(C)=C[C@@H](C(=O)O1)[C@]34O)O2 [Ivermectin B1a monosaccharide],Mean,[1],49.58
CC1=C[C@H]2C(=O)O[C@H]3C[C@@H](C/C=C(\C)C[C@@H](C)/C=C/C=C4\CO[C@H]([C@@H]1O)[C@@]42O)O[C@@]1(CC[C@H](C)[C@@H](C)O1)C3 [Milbemycin A3],1) Growth (%) at 72 h,"[1]; P. falciparum, 2 μg/mL, 72 h",24.47%
same,Mean,[1]; [6],24.47
same,2) Growth (%) at 120 h,[2],17.63%
same,3) Fold change (72 h/120 h),[2],1.4
O=C(O)c1cccc(C(=O)O)n1 [Dipicolinic acid],percent parasite growth at 2 µg/mL,"[3]; library screen at 2 μg/mL, % growth, replicate 1, read-out: Tg_72h_%Growth_Rep1",112%
same,percent parasite growth at 2 µg/mL,"[3]; library screen at 2 μg/mL, % growth, replicate 2, read-out: Tg_72h_%Growth_Rep2",89.5%
"CN(C)[C@@H]1C(O)=C(C(N)=O)C(=O)[C@@]2(O)C(O)=C3C(=O)c4c(O)cccc4[C@@](C)(O)[C@H]3[C@H](O)[C@@H]12 [Oxytetracycline, reference compound]",activity at 2 µg/mL,[1],47.4%
same,3) Fold change (72 h/120 h),[2],3.1
same,activity at 2 µg/mL,[2],15.2%
4-O-methylammocidin,1) Growth (%) at 72 h,"[1]; P. falciparum, 2 μg/mL, 72 h",43.16%
same,2) Growth (%) at 120 h,[2],13.10%
same,3) Fold change (72 h/120 h),[2],3.3
"CCO[C@@H]1[C@@H](OC)[C@H](C)O[C@@H](O[C@@H]2C[C@H]3CC[C@@H]4[C@@H](C=C5C(=O)[C@H](C)[C@@H](O[C@H]6CC[C@H](N(C)C)[C@@H](C)O6)CCC[C@H](CC)OC(=O)C[C@H]54)[C@@H]3C2)[C@@H]1OC [3-Ethoxy-5,6-dihydrospinosyn J]",IC50,[1]; [4],0.42 ± 0.22 µM
